Results: patent publication US11192891B2, “Diazaspiro ROCK inhibitors” (BRISTOL-MYERS SQUIBB COMPANY, priority 2017, dated 2021)

molecular target: ROCK2 (Homo sapiens, UniProt O75116); test: ROCK kinase inhibition assay, FITC peptide substrate, LABCHIP 3000 readout; assay type: biochemical; conditions: 5 μM ATP, 1.5 μM peptide substrate
How it was run: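 Tested across a concentration range, with percent inhibition of kinase activity derived per concentration. Peptide phosphorylation, initiated by adding the Rho kinase variant (final DMSO <2%), was quenched with EDTA and substrate/product resolved by mobility shift.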

Chain of ROCK2 (O75116 whole entry, species assumed): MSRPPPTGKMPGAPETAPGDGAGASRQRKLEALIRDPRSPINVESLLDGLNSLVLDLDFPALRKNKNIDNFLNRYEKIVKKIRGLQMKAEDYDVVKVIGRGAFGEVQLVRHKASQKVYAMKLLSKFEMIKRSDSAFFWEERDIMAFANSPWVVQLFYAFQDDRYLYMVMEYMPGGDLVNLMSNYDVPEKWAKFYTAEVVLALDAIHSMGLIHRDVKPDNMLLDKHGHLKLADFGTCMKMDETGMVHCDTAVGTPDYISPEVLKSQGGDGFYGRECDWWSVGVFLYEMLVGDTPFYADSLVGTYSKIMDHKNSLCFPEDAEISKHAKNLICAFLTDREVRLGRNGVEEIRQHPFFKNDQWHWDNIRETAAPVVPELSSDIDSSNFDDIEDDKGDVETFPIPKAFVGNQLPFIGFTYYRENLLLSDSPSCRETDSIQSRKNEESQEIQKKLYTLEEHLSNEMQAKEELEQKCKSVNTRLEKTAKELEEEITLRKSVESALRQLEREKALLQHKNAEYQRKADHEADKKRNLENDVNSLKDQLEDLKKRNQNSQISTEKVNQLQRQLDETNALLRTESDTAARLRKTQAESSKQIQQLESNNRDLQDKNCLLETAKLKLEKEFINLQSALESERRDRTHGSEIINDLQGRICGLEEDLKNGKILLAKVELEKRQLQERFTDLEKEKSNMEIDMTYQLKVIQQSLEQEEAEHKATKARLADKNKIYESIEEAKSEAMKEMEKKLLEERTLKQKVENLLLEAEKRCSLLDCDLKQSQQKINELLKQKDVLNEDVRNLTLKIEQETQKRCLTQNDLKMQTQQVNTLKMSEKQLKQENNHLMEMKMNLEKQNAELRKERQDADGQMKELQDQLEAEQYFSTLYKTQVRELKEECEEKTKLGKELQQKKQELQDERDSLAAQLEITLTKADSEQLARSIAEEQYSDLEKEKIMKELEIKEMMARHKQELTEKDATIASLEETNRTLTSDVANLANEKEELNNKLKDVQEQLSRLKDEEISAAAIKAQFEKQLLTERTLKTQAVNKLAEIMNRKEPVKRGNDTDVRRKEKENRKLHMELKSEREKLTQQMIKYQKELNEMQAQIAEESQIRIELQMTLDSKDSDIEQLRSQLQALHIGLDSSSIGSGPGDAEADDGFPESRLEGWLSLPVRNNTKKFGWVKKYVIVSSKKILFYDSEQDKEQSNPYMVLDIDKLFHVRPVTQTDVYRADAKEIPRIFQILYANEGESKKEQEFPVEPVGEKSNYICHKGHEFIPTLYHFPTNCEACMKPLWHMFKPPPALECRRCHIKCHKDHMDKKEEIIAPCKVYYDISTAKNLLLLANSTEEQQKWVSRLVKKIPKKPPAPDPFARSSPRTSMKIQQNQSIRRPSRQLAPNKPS

First: COc1cc(N2CCC3(CCN(C(=O)C4CCN(c5ncccn5)CC4)CC3)C2=O)ccc1-c1cn[nH]c1 [Example 140, 2-[3-methoxy-4-(1H-pyrazol-4-yl)phenyl]-8-[1-(pyrimidin-2-yl)piperidine-4-carbonyl]-2,8-diazaspiro[4.5]decan-1-one]
Second: COc1cc(N2CCC3(CCN(C(=O)c4ccc(N5CCCC5)cc4)CC3)C2=O)ccc1-c1cn[nH]c1 [Example 191]
The IC50 of the first is 310-fold higher: 1240 nM for the first, 4 nM for the second.

Compared with COc1cccc(C(=O)N2CCC3(CC2)CN(c2ccc(-c4cn[nH]c4)cc2)C3=O)c1 [Example 41, 7-(3-methoxybenzoyl)-2-[4-(1H-pyrazol-4-yl)phenyl]-2,7-diazaspiro[3.5]nonan-1-one], COc1ccc(C(=O)N2CCC3(CC2)CN(c2ccc(-c4cn[nH]c4)cc2)C3=O)cc1 [Example 40, 7-(4-methoxybenzoyl)-2-[4-(1H-pyrazol-4-yl)phenyl]-2,7-diazaspiro[3.5]nonan-1-one] is 2.2-fold lower in IC50: 285 nM for the first, 132 nM for the second. The second is the more potent here.

Going from COc1cc(OC)c(C(=O)N2CCC3(CC2)CCN(c2ccc(-c4cn[nH]c4)c(OC)c2)C3=O)c(OC)c1 [Example 29, 2-[3-methoxy-4-(1H-pyrazol-4-yl)phenyl]-8-(2,4,6-trimethoxybenzoyl)-2,8-diazaspiro[4.5]decan-1-one] to COc1ccc2c(c1)cc(C(=O)N1CCC3(CC1)CCN(c1ccc(-c4cn[nH]c4)c(OC)c1)C3=O)n2C [Example 156, 8-(5-methoxy-1-methyl-1H-indole-2-carbonyl)-2-[3-methoxy-4-(1H-pyrazol-4-yl)phenyl]-2,8-diazaspiro[4.5]decan-1-one], the IC50 falls from 336 nM to 54 nM (6.2-fold). The second is the more potent here.

First: COc1ccccc1C(=O)N1CCC2(CCN(c3ccc(-c4cn[nH]c4)cc3)C2=O)C1 (stereo not shown) [Example 43, 7-(2-methoxybenzoyl)-2-[4-(1H-pyrazol-4-yl)phenyl]-2,7-diazaspiro[4.4]nonan-1-one]
Second: COc1cc(F)ccc1C(=O)N1CCC2(CC1)CCN(c1ccc(-c3cn[nH]c3)cc1)C2=O [Example 9, 8-(4-fluoro-2-methoxybenzoyl)-2-[4-(1H-pyrazol-4-yl)phenyl]-2,8-diazaspiro[4.5]decan-1-one]
The IC50 of the first is 11-fold higher: 2560 nM for the first, 241 nM for the second. The second is the more potent here.

Compared with COc1cc(N2CCC3(CCN(C(=O)c4ccc5c(ccn5C)c4)CC3)C2=O)ccc1-c1cn[nH]c1 [Example 153, 2-[3-methoxy-4-(1H-pyrazol-4-yl)phenyl]-8-(1-methyl-1H-indole-5-carbonyl)-2,8-diazaspiro[4.5]decan-1-one], COc1cc(N2CCC3(CCN(C(=O)c4ccc5ccn(C)c5c4)CC3)C2=O)ccc1-c1cn[nH]c1 [Example 155, 2-[3-methoxy-4-(1H-pyrazol-4-yl)phenyl]-8-(1-methyl-1H-indole-6-carbonyl)-2,8-diazaspiro[4.5]decan-1-one] is 8.9-fold higher in IC50: 4.5 nM for the first, 40 nM for the second.

Compared with COc1cc(N2CCC3(CCN(C(=O)c4cc5ccccc5[nH]4)CC3)C2=O)ccc1-c1cn[nH]c1 [Example 68, 8-(1H-indole-2-carbonyl)-2-[3-methoxy-4-(1H-pyrazol-4-yl)phenyl]-2,8-diazaspiro[4.5]decan-1-one], COc1ccccc1C(=O)N1CCC2(CC1)CCN(c1ccc(-c3cn[nH]c3)c(OC)c1)C2=O [Example 12, 2-[3-methoxy-4-(1H-pyrazol-4-yl)phenyl]-8-(2-methoxybenzoyl)-2,8-diazaspiro[4.5]decan-1-one] is 8.6-fold lower in IC50: 467 nM for the first, 54 nM for the second.

Going from COc1cc(N2CCC3(CCN(C(=O)c4cccc5[nH]cnc45)CC3)C2=O)ccc1-c1cn[nH]c1 [Example 197, 8-(1H-1,3-benzodiazole-4-carbonyl)-2-[3-methoxy-4-(1H-pyrazol-4-yl)phenyl]-2,8-diazaspiro[4.5]decan-1-one] to COc1cc(N2CCC3(CCN(C(=O)c4cccc5ccncc45)CC3)C2=O)ccc1-c1cn[nH]c1 [Example 203, 8-(isoquinoline-8-carbonyl)-2-[3-methoxy-4-(1H-pyrazol-4-yl)phenyl]-2,8-diazaspiro[4.5]decan-1-one], the IC50 rises from 61 nM to 326 nM (5.3-fold). The first is the more potent here.

First: COc1cc(N2CCC3(CCN(C(=O)c4ccc5c(c4)CC(=O)N5)CC3)C2=O)ccc1-c1cn[nH]c1 [Example 177, 2-[3-methoxy-4-(1H-pyrazol-4-yl)phenyl]-8-(2-oxo-2,3-dihydro-1H-indole-5-carbonyl)-2,8-diazaspiro[4.5]decan-1-one]
Second: COc1cc(N2CCC3(CCN(C(=O)c4ccc5c(c4)nc(C)n5C)CC3)C2=O)ccc1-c1cn[nH]c1 [Example 179, 8-(1,2-dimethyl-1H-1,3-benzodiazole-5-carbonyl)-2-[3-methoxy-4-(1H-pyrazol-4-yl)phenyl]-2,8-diazaspiro[4.5]decan-1-one]
The IC50 of the first is 34-fold higher: 78 nM for the first, 2.3 nM for the second. The second is the more potent here.

COc1cc(N2CCC3(CCN(C(=O)c4csnn4)CC3)C2=O)ccc1-c1cn[nH]c1 [Example 77, 2-[3-methoxy-4-(1H-pyrazol-4-yl)phenyl]-8-(1,2,3-thiadiazole-4-carbonyl)-2,8-diazaspiro[4.5]decan-1-one] and COc1cc(N2CCC3(CCN(C(=O)c4cscn4)CC3)C2=O)ccc1-c1cn[nH]c1 [Example 86, 2-[3-methoxy-4-(1H-pyrazol-4-yl)phenyl]-8-(1,3-thiazole-4-carbonyl)-2,8-diazaspiro[4.5]decan-1-one] are within 1.5-fold of each other in IC50: 453 nM for the first, 443 nM for the second.

Going from COc1cc(N2CCC3(CCN(C(=O)c4ccc(N5CCN(C)CC5)cc4)CC3)C2=O)ccc1-c1cn[nH]c1 [Example 120, 2-[3-methoxy-4-(1H-pyrazol-4-yl)phenyl]-8-[4-(4-methylpiperazin-1-yl)benzoyl]-2,8-diazaspiro[4.5]decan-1-one] to COc1cc(N2CCC3(CCN(C(=O)c4ccc(CN5CCOCC5)cc4)CC3)C2=O)ccc1-c1cn[nH]c1 [Example 180, 2-[3-methoxy-4-(1H-pyrazol-4-yl)phenyl]-8-{4-[(morpholin-4-yl)methyl]benzoyl}-2,8-diazaspiro[4.5]decan-1-one], the IC50 rises from 0.3 nM to 27 nM (90-fold). The first is the more potent here.

First: COc1cc(N2CCC3(CCN(C(=O)c4ccc(N5CCN(Cc6nc7ccccc7s6)CC5)cc4)CC3)C2=O)ccc1-c1cn[nH]c1 [Example 229, 8-(4-{4-[(1,3-benzothiazol-2-yl)methyl]piperazin-1-yl}benzoyl)-2-[3-methoxy-4-(1H-pyrazol-4-yl)phenyl]-2,8-diazaspiro[4.5]decan-1-one]
Second: COc1cc(N2CCC3(CCN(C(=O)c4ccc(N5CCN(Cc6ccc(-c7ccccc7)cc6)CC5)cc4)CC3)C2=O)ccc1-c1cn[nH]c1 [Example 225, 8-{4-[4-({[1,1′-biphenyl]-4-yl}methyl)piperazin-1-yl]benzoyl}-2-[3-methoxy-4-(1H-pyrazol-4-yl)phenyl]-2,8-diazaspiro[4.5]decan-1-one]
The IC50 of the first is 2.4-fold lower: 1.9 nM for the first, 4.5 nM for the second. The first is the more potent here.

Going from COc1cccc(NC(=O)N2CCC3(CC2)CCN(c2ccc(-c4cn[nH]c4)c(OC)c2)C3=O)c1 [Example 216, 2-[3-methoxy-4-(1H-pyrazol-4-yl)phenyl]-N-(3-methoxyphenyl)-1-oxo-2,8-diazaspiro[4.5]decane-8-carboxamide] to COc1ccc(C(=O)N2CCC3(CC2)CCN(c2ccc(-c4cn[nH]c4)c(OC)c2)C3=O)nc1 [Example 16, 2-[3-methoxy-4-(1H-pyrazol-4-yl)phenyl]-8-(5-methoxypyridine-2-carbonyl)-2,8-diazaspiro[4.5]decan-1-one], the IC50 falls from 2250 nM to 13 nM (170-fold).

Compared with COc1cc(N2CCC3(CCN(C(=O)c4cc(C)n5nc[nH]c(=O)c45)CC3)C2=O)ccc1-c1cn[nH]c1 [Example 132, 2-[3-methoxy-4-(1H-pyrazol-4-yl)phenyl]-8-{7-methyl-4-oxo-3H,4H-pyrrolo[2,1-f][1,2,4]triazine-5-carbonyl}-2,8-diazaspiro[4.5]decan-1-one], COc1cc(N2CCC3(CCN(C(=O)c4cc5n(n4)CCNC5=O)CC3)C2=O)ccc1-c1cn[nH]c1 [Example 114, 2-[3-methoxy-4-(1H-pyrazol-4-yl)phenyl]-8-{4-oxo-4H,5H,6H,7H-pyrazolo[1,5-a]pyrazine-2-carbonyl}-2,8-diazaspiro[4.5]decan-1-one] is 2-fold higher in IC50: 3 nM for the first, 6 nM for the second. The first is the more potent here.

COc1cc(N2CCC3(CCN(C(=O)c4ccc(-c5nc(C)no5)cc4)CC3)C2=O)ccc1-c1cn[nH]c1 [Example 185, 2-[3-methoxy-4-(1H-pyrazol-4-yl)phenyl]-8-[4-(3-methyl-1,2,4-oxadiazol-5-yl)benzoyl]-2,8-diazaspiro[4.5]decan-1-one] and COc1cc(N2CCC3(CCN(C(=O)c4ccc(-c5nnc(C)o5)cc4)CC3)C2=O)ccc1-c1cn[nH]c1 [Example 162, 2-[3-methoxy-4-(1H-pyrazol-4-yl)phenyl]-8-[4-(5-methyl-1,3,4-oxadiazol-2-yl)benzoyl]-2,8-diazaspiro[4.5]decan-1-one] are within 1.5-fold of each other in IC50: 37 nM for the first, 27 nM for the second.

Compared with COc1cc(N2CCC3(CCN(C(=O)c4ccc5ncsc5c4)CC3)C2=O)ccc1-c1cn[nH]c1 [Example 83], COc1cc(N2CCC3(CCN(C(=O)c4ccncc4)CC3)C2=O)ccc1-c1cn[nH]c1 [Example 56, 2-[3-methoxy-4-(1H-pyrazol-4-yl)phenyl]-8-(pyridine-4-carbonyl)-2,8-diazaspiro[4.5]decan-1-one] is 17-fold higher in IC50: 26 nM for the first, 433 nM for the second. The first is the more potent here.

COc1ccc2cc(C(=O)N3CCC4(CC3)CCN(c3ccc(-c5cn[nH]c5)c(OC)c3)C4=O)ccc2c1 [Example 176, 2-[3-methoxy-4-(1H-pyrazol-4-yl)phenyl]-8-(6-methoxynaphthalene-2-carbonyl)-2,8-diazaspiro[4.5]decan-1-one] and COc1cc(N2CCC3(CCN(C(=O)c4ccc(-n5cncn5)cc4)CC3)C2=O)ccc1-c1cn[nH]c1 [Example 106, 2-[3-methoxy-4-(1H-pyrazol-4-yl)phenyl]-8-[4-(1H-1,2,4-triazol-1-yl)benzoyl]-2,8-diazaspiro[4.5]decan-1-one] are within 1.5-fold of each other in IC50: 20 nM for the first, 25 nM for the second.

COc1cc(N2CCC3(CCN(C(=O)c4ccc(C(F)(F)F)cn4)CC3)C2=O)ccc1-c1cn[nH]c1 [Example 98, 2-[3-methoxy-4-(1H-pyrazol-4-yl)phenyl]-8-[5-(trifluoromethyl)pyridine-2-carbonyl]-2,8-diazaspiro[4.5]decan-1-one] and COc1cc(N2CCC3(CCN(C(=O)c4ccc(C)s4)CC3)C2=O)ccc1-c1cn[nH]c1 [Example 66, 2-[3-methoxy-4-(1H-pyrazol-4-yl)phenyl]-8-(5-methylthiophene-2-carbonyl)-2,8-diazaspiro[4.5]decan-1-one] are within 1.5-fold of each other in IC50: 259 nM for the first, 372 nM for the second.
